Each structure is given as a SMILES string.

In general, IC50 refers to the concentration that inhibits the measured activity by half.

This experiment deals with T1, human recombinant USP30 (Homo sapiens, UniProt Q70CQ3).
T1 construct: purchased Boston Biochem E-582
T1 sequence (Q70CQ3 1-517): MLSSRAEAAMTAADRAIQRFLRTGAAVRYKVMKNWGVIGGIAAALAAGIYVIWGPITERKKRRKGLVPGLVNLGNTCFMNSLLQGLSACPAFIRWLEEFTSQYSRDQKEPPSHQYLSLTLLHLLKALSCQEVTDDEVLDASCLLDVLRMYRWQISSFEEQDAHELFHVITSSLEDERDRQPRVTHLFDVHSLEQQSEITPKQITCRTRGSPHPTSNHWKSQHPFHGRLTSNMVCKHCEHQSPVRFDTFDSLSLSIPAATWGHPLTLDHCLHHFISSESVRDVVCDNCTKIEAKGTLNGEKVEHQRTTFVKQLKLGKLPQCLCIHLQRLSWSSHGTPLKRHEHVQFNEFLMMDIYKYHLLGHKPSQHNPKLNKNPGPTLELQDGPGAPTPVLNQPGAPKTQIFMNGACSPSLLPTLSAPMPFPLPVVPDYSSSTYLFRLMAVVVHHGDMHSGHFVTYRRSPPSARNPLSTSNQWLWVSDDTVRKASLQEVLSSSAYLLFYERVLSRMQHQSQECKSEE
Put plainly: Ubiquitin-Rhodamine 110 Assay for USP30 Activity (USP30 Inhibitor Biochemical Assay). The note with it: 0.2 nM USP30, 25 nM Ub-Rh110, 30 min preincubation, 30 min at room temperature; read-out: USP30 potency range (USP30 biochemical IC50 assay, IC50 ranges). As to the method: Example A: Biochemical Assay: Ubiquitin-Rhodamine 110 Assay for USP30 Activity (USP30 Inhibitor Biochemical Assay)
The assay was performed in a final volume of 9 μL in assay buffer containing 20 mM Tris-HCl (pH 8.0, (1M Tris-HCl, pH 8.0 solution; Corning 46-031-CM)), 1 mM GSH (L-glutathione reduced, Sigma-Aldrich, G4251-100G), 0.03% BGG (0.22 μM filtered, Sigma, G7516-25G), and 0.01% Triton X-100 (Sigma, T9284-10L). Nanoliter quantities of 10-point, 3-fold serial dilution in DMSO were pre-dispensed into 1536 assay plates (Corning, #3724BC) for a final test concentration of 25 μM to 1.3 nM, top to lowest dose, respectively. Concentration and incubation times were optimized for the maximal signal-to-background while maintaining initial velocity conditions at a fixed substrate concentration. The final concentration of USP30 (human recombinant USP30, Boston Biochem, cat. # E-582) in the assay was 0.2 nM. […] 3 μL of 2×USP30 was added to assay plates (pre-stamped with compound), preincubated for 30 minutes and then treated with 3 μL of 2×Ub-Rh110. Plates were incubated for 30 minutes at room temperature before addition of 3 μL of stop solution (final concentration of 10 mM citric acid (Sigma, 251275-500G)). Fluorescence was read on the Envision (excitation at 485 nm and emission at 535 nm; Perkin Elmer) or on the PheraSTAR (excitation at 485 nm and emission at 535 nm; BMG Labtech).
For all assay formats data were reported as percent inhibition compared with control wells based on the following equation: % inh=1−((FLU−AveLow)/(AveHigh−AveLow)) where FLU=measured Fluorescence, AveLow=average Fluorescence of no enzyme control (n=16), and AveHigh=average Fluorescence of DMSO control (n=16). IC50 values were determined by curve fitting of the standard 4 parameter logistic fitting algorithm included in the Activity Base software package: IDBS XE Designer Model205. Data is fitted using the Levenburg Marquardt algorithm.
With `C[C@H]1CCCC[C@@H]1c1cnc(NC(=O)[C@H]2C[C@H](NC#N)C2)s1` [Compound 1-23, (1r,3r)-3-(cyanoamino)-N-{5-[(1S,2S)-2-methylcyclohexyl]-1,3-thiazol-2-yl}cyclobutane-1-carboxamide], the IC50 was under 100 nM.
Next, `C[C@@H]1CCCC[C@H]1c1cnc(NC(=O)[C@H]2C[C@H](NC#N)C2)s1` [Compound 1-24, (1r,3r)-3-(cyanoamino)-N-{5-[(1R,2R)-2-methylcyclohexyl]-1,3-thiazol-2-yl}cyclobutane-1-carboxamide]: under 100 nM; `N#CN[C@H]1C[C@H](C(=O)Nc2nc(C3CC3)c(C3CCCCC3)s2)C1` [Compound 1-25, (1r,3r)-3-(cyanoamino)-N-(5-cyclohexyl-4-cyclopropyl-1,3-thiazol-2-yl)cyclobutane-1-carboxamide]: under 100 nM; `N#CN[C@H]1C[C@H](C(=O)Nc2nc(-c3cnn(C4CC4)c3)c(C3CCCCC3)s2)C1` [Compound 1-26, (1r,3r)-3-(cyanoamino)-N-[5-cyclohexyl-4-(1-cyclopropyl-1H-pyrazol-4-yl)-1,3-thiazol-2-yl]cyclobutane-1-carboxamide]: under 100 nM.
Next, `N#CN[C@H]1C[C@H](C(=O)Nc2cc(C(F)(F)F)ccn2)C1` [Compound 1-27, (1r,3r)-3-(cyanoamino)-N-[4-(trifluoro-methyl)pyridin-2-yl]cyclobutane-1-carboxamide]: 100 to 1000 nM; `N#CN[C@H]1C[C@H](C(=O)Nc2ncc([C@@H]3CCCCO3)s2)C1` [Compound 1-28, (1r,3r)-3-(cyanoamino)-N-{5-[(2S)-oxan-2-yl]-1,3-thiazol-2-yl}cyclobutane-1-carboxamide]: 1000 to 10000 nM; `Cc1nc(NC(=O)[C@H]2C[C@H](NC#N)C2)sc1C1CCCCC1` [Compound 1-29, (1r,3r)-3-(cyanoamino)-N-(5-cyclohexyl-4-methyl-1,3-thiazol-2-yl)cyclobutane-1-carboxamide]: under 100 nM.
Next, `Cn1nc(NC(=O)[C@H]2C[C@H](NC#N)C2)cc1C1CCCCC1` [Compound 1-30, (1r,3r)-3-(cyanoamino)-N-(5-cyclohexyl-1-methyl-1H-pyrazol-3-yl)cyclobutane-1-carboxamide]: 100 to 1000 nM; `N#CN[C@H]1C[C@H](C(=O)Nc2nc(C(F)(F)F)c(C3CCCCC3)s2)C1` [Compound 1-31, (1r,3r)-3-(cyanoamino)-N-[5-cyclohexyl-4-(trifluoromethyl)-1,3-thiazol-2-yl]cyclobutane-1-carboxamide]: under 100 nM; `N#CN[C@H]1C[C@H](C(=O)Nc2ncc([C@H]3CCCC[C@H]3C(F)(F)F)s2)C1` [Compound 1-32, (1r,3r)-3-(cyanoamino)-N-{5-[(1S,2R)-2-(trifluoromethyl)cyclo-hexyl]-1,3-thiazol-2-yl}cyclobutane-1-carboxamide]: 100 to 1000 nM.
`N#CN[C@H]1C[C@H](C(=O)Nc2ncc([C@@H]3CCCC[C@@H]3C(F)(F)F)s2)C1` [Compound 1-33, (1r,3r)-3-(cyanoamino)-N-{5-[(1R,2S)-2-(trifluoromethyl)cyclo-hexyl]-1,3-thiazol-2-yl}cyclobutane-1-carboxamide]: the 50% inhibitory concentration (IC50) lay within 100 to 1000 nM.
In the case of `N#CN[C@H]1C[C@H](C(=O)Nc2ncc([C@H]3CCCC[C@@H]3C(F)(F)F)s2)C1` [Compound 1-34, (1r,3r)-3-(cyanoamino)-N-{5-[(1S,2S)-2-(trifluoromethyl)cyclo-hexyl]-1,3-thiazol-2-yl}cyclobutane-1-carboxamide] it was 100 to 1000 nM.
On to `N#CN[C@H]1C[C@H](C(=O)Nc2nc(Cl)c(C3CC3)s2)C1` [Compound 1-36, (1r,3r)-N-(4-chloro-5-cyclopropyl-1,3-thiazol-2-yl)-3-(cyanoamino)cyclo-butane-1-carboxamide], for which the IC50 was under 100 nM.
Next, `N#CN[C@H]1C[C@H](C(=O)Nc2ncc([C@@H]3CC4CCC3CC4)s2)C1` [Compound 1-37, (1r,3r)-N-{5-[(2R)-bicyclo[2.2.2]octan-2-yl]-1,3-thiazol-2-yl}-3-(cyanoamino)cyclo-butane-1-carboxamide]: under 100 nM; `N#CN[C@H]1C[C@H](C(=O)Nc2ncc([C@H]3CC4CCC3CC4)s2)C1` [Compound 1-38, (1r,3r)-N-{5-[(2S)-bicyclo[2.2.2]octan-2-yl]-1,3-thiazol-2-yl}-3-(cyanoamino)cyclo-butane-1-carboxamide]: 100 to 1000 nM.
In the case of `N#CN[C@H]1C[C@H](C(=O)Nc2cc(Cl)n(C3CCCCC3)n2)C1` [Compound 1-39, (1r,3r)-N-(5-chloro-1-cyclohexyl-1H-pyrazo1-3-yl)-3-(cyanoamino)cyclo-butane-1-carboxamide] it was 100 to 1000 nM; in that of `N#CN[C@H]1C[C@H](C(=O)Nc2ncc(-c3cccc(C#N)c3)s2)C1` [Compound 1-40, (1r,3r)-3-(cyanoamino)-N-[5-(3-cyanophenyl)-1,3-thiazol-2-yl]cyclobutane-1-carboxamide], 100 to 1000 nM.
Next, `N#CN[C@H]1C[C@H](C(=O)Nc2cc(-c3cccc(Cl)c3)no2)C1` [Compound 1-41, (1r,3r)-N-[3-(3-chlorophenyl)-1,2-oxazol-5-yl]-3-(cyanoamino)cyclo-butane-1-carboxamide]: 100 to 1000 nM; `N#CN[C@H]1C[C@H](C(=O)Nc2cc(-c3cccc(Cl)c3)on2)C1` [Compound 1-43, (1r,3r)-N-[5-(3-chlorophenyl)-1,2-oxazol-3-yl]-3-(cyanoamino)cyclo-butane-1-carboxamide]: 100 to 1000 nM; `C[C@]1(C(=O)Nc2nc(Cl)c(C3CCCCC3)s2)C[C@H](NC#N)C1` [Compound 1-44, (1r,3s)-N-(4-chloro-5-cyclohexyl-1,3-thiazol-2-yl)-3-(cyanoamino)-1-methylcyclobutane-1-carboxamide]: under 100 nM.
Turning to `CN(c1cc(-c2cccc(Cl)c2)no1)C(=O)[C@H]1C[C@H](NC#N)C1` [Compound 1-45, (1r,3r)-N-[3-(3-chlorophenyl)-1,2-oxazol-5-yl]-3-(cyanoamino)-N-methylcyclobutane-1-carboxamide], the IC50 was 100 to 1000 nM.
`CCC1(C(=O)Nc2cnc(C3CCCCC3)s2)CC(NC#N)C1` (stereo not drawn) [Compound 1-46, (1r,3s)-3-(cyanoamino)-N-(2-cyclohexyl-1,3-thiazol-5-yl)-1-ethylcyclobutane-1-carboxamide]: the IC50 was in the range of 100 to 1000 nM.
In the case of `N#CN[C@H]1C[C@](F)(C(=O)Nc2nc(Cl)c(C3CCCCC3)s2)C1` [Compound 1-47, (1s,3s)-N-(4-chloro-5-cyclohexyl-1,3-thiazol-2-yl)-3-(cyanoamino)-1-fluorocyclobutane-1-carboxamide] it was 100 to 1000 nM; in that of `N#CN[C@H]1C[C@@](F)(C(=O)Nc2nc(Cl)c(C3CCCCC3)s2)C1` [Compound 1-48, (1r,3r)-N-(4-chloro-5-cyclohexyl-1,3-thiazol-2-yl)-3-(cyanoamino)-1-fluorocyclobutane-1-carboxamide], under 100 nM; in that of `CN(c1nc(Cl)c(C2CCCCC2)s1)C(=O)[C@H]1C[C@H](NC#N)C1` [Compound 1-49, (1r,3r)-N-(4-chloro-5-cyclohexyl-1,3-thiazol-2-yl)-3-(cyanoamino)-N-methylclycobutane-1-carboxamide], under 100 nM.
Next, `CN(c1nc(Cl)c(C(C)(C)C)s1)C(=O)[C@H]1C[C@H](NC#N)C1` [Compound 1-50, (1r,3r)-N-(5-tert-butyl-4-chloro-1,3-thiazol-2-yl)-3-(cyanoamino)-N-methylcyclobutane-1-carboxamide]: under 100 nM; `N#CN[C@H]1C[C@H](C(=O)Nc2cc(-c3cccc(C#N)c3)no2)C1` [Compound 1-51, (1r,3r)-3-(cyanoamino)-N-[3-(3-cyanophenyl)-1,2-oxazol-5-yl]cyclobutane-1-carboxamide]: 100 to 1000 nM.
